Earlier results, collected in PMC8764166, “Phenolic-Rich Plant Extracts With Antimicrobial Activity: An Alternative to Food Preservatives and Biocides?” (Frontiers in Microbiology, 2022).
≈ marks a conversion by molar mass, not a printed value. Read-outs that look alike come from different tables or passages of the source.

Assays:
[1] = system: biofilms with undesirable food spoiling or foodborne pathogenic microorganisms; set-up: method as in the references listed per substance; conditions: the references listed per substance
Salmonella Infantis = system: Salmonella Infantis; set-up: method as in Skroza et al., 2019; conditions: ref Skroza et al., 2019
Enterococcus faecalis = conditions: for MIC against Enterococcus faecalis: ref Adamczak et al., 2020
Pseudomonas aeruginosa = conditions: ref Adamczak et al., 2020
Bacillus cereus = conditions: for MIC against Bacillus cereus: ref Skroza et al., 2019
L. monocytogenes = system: L. monocytogenes; set-up: method as in Pernin et al., 2019; conditions: ref Pernin et al., 2019
Salmonella typhimurium = conditions: ref Kim et al., 2010
[2] = system: Salmonella enterica serovar Typhimurium; conditions: ref Alvarado-Martinez et al., 2020
S. aureus = conditions: up to 20% (w/w) proteins, 37°C, 15°C or 6°C; ref Bouarab-Chibane et al. (2018b)
[3] = ŽMJ 129 (clinical isolate), 10^5–10^6 cfu·ml^−1, Mueller Hinton broth, 24 h 37°C, ref Skroza et al., 2019

## O=c1c(O)c(-c2cc(O)c(O)c(O)c2)oc2cc(O)cc(O)c12 [myricetin]
[1]
  activity against biofilms: inhibit formation or to eradicate biofilms

## O=C(/C=C/c1ccc(O)c(O)c1)O[C@H](Cc1ccc(O)c(O)c1)C(=O)O [Rosmarinic acid]
Salmonella Infantis
  MIC against Salmonella Infantis: S. aureus 0.45 g·L^−1 B. cereus 0.45 g·L^−1 E. coli 0.45 g·L^−1 S. Infantis 0.45 g·L^−1
Staphylococcus aureus; ref Skroza et al., 2019
  MIC against S. aureus: S. aureus 0.45 g·L^−1 B. cereus 0.45 g·L^−1 E. coli 0.45 g·L^−1 S. Infantis 0.45 g·L^−1
Enterococcus faecalis
  MIC against Enterococcus faecalis: 1000 µg/mL (≈ 2780 µM)
Pseudomonas aeruginosa
  MIC against P. aeruginosa: 500 to 1000 µg/mL
Bacillus cereus
  MIC against Bacillus cereus: S. aureus 0.45 g·L^−1 B. cereus 0.45 g·L^−1 E. coli 0.45 g·L^−1 S. Infantis 0.45 g·L^−1
Escherichia coli; ref Adamczak et al., 2020
  MIC against E. coli: 500 µg/mL (≈ 1390 µM)
Escherichia coli; [3]
  MIC against E. coli: S. aureus 0.45 g·L^−1 B. cereus 0.45 g·L^−1 E. coli 0.45 g·L^−1 S. Infantis 0.45 g·L^−1

## O=C(O)c1ccc(O)cc1 [p-hydroxybenzoic acid]
L. monocytogenes
  mechanism of action against L. monocytogenes: penetration or accumulation in the bacterial membrane of undissociated form

## COC1=CC(=O)C=C(OC)C1=O [2,6-dimethoxy-1,4-benzoquinone]
Staphylococcus aureus; ref Kim et al., 2010
  MIC against S. aureus: 8 µg/mL (≈ 47.6 µM)
Salmonella typhimurium
  MIC against S. typhimurium: 32 µg/mL (≈ 190 µM)
Bacillus cereus; ref Kim et al., 2010
  MIC against B. cereus: 64 µg/mL (≈ 381 µM)
Escherichia coli; ref Kim et al., 2010
  MIC against E. coli: 32 µg/mL (≈ 190 µM)

## O=C(O)c1ccc(O)c(O)c1 [Proto-catechuic acid]
Salmonella Infantis
  MIC against Salmonella Infantis: 380 µg/mL (≈ 2470 µM)
Staphylococcus aureus; ref Skroza et al., 2019
  MIC against S. aureus: 380 µg/mL (≈ 2470 µM)
Bacillus cereus
  MIC against Bacillus cereus: 190 µg/mL (≈ 1230 µM)
L. monocytogenes
  mechanism of action against L. monocytogenes: penetration or accumulation in the bacterial membrane of undissociated form
[2]
  cell morphology: morphological defects at the polar ends of bacteria
  expression of virulence genes (SPI-1): downregulation of key regulatory genes
  membrane permeabilization: membrane permeabilization
Escherichia coli; E. coli O157:H7 ATCC 43890, 2.5 10^6 cfu·ml^−1, Mueller Hinton broth, 24 h 37°C, ref Pacheco-Ordaz et al., 2017
  MIC against Escherichia coli: E. coli, 3.1 g·L^−1
Escherichia coli; [3]
  MIC against E. coli: 380 µg/mL (≈ 2470 µM)

## O=c1cc(-c2ccc(O)c(O)c2)oc2cc(O)cc(O)c12 [Luteolin]
Staphylococcus aureus; ref Adamczak et al., 2020
  MIC against S. aureus: 500 µg/mL (≈ 1750 µM)
Staphylococcus aureus; ref Skroza et al., 2019
  MIC against S. aureus: 45 µg/mL (≈ 157 µM)
Enterococcus faecalis
  MIC against Enterococcus faecalis: 1000 µg/mL (≈ 3490 µM)
Pseudomonas aeruginosa
  MIC against P. aeruginosa: 500 µg/mL (≈ 1750 µM)
Bacillus cereus
  MIC against Bacillus cereus: 90 µg/mL (≈ 314 µM)

## O=c1cc(-c2ccc(O)cc2)oc2cc(O)c([C@@H]3O[C@H](CO)[C@@H](O)[C@H](O)[C@H]3O)c(O)c12 [isovitexin]
Enterococcus faecalis
  MIC against Enterococcus faecalis: 1000 µg/mL (≈ 2310 µM)
Pseudomonas aeruginosa
  MIC against P. aeruginosa: 500 µg/mL (≈ 1160 µM)
Escherichia coli; ref Adamczak et al., 2020
  MIC against E. coli: 500 µg/mL (≈ 1160 µM)

## C[C@@H]1O[C@@H](O[C@H]2[C@H](Oc3cc(O)c4c(c3)O[C@H](c3ccc(O)cc3)CC4=O)O[C@H](CO)[C@@H](O)[C@@H]2O)[C@H](O)[C@H](O)[C@H]1O [Naringin]
Enterococcus faecalis
  MIC against Enterococcus faecalis: 1000 µg/mL (≈ 1720 µM)
Pseudomonas aeruginosa
  MIC against P. aeruginosa: 500 µg/mL (≈ 861 µM)
Escherichia coli; ref Adamczak et al., 2020
  MIC against E. coli: 500 µg/mL (≈ 861 µM)

## O=c1cc(-c2ccc(O)cc2)oc2c([C@@H]3O[C@H](CO)[C@@H](O)[C@H](O)[C@H]3O)c(O)cc(O)c12 [Vitexin]
Enterococcus faecalis
  MIC against Enterococcus faecalis: 1000 µg/mL (≈ 2310 µM)
Pseudomonas aeruginosa
  MIC against P. aeruginosa: 500 µg/mL (≈ 1160 µM)
Escherichia coli; ref Adamczak et al., 2020
  MIC against E. coli: 500 µg/mL (≈ 1160 µM)

## O=C1C=CC(=O)c2c(O)ccc(O)c21 [naphthazarin]
S. aureus
  antibacterial activity in the presence of bovine meat proteins: bactericidal at 6 °C and 15°C, unlike at 37 °C

## O=c1c(O)c(-c2ccc(O)cc2O)oc2cc(O)cc(O)c12 [morin]
[1]
  activity against biofilms: inhibit formation or to eradicate biofilms

## O=C(O)c1ccccc1O [Salicylic acid]
Salmonella Infantis
  MIC against Salmonella Infantis: 170 µg/mL (≈ 1230 µM)
Staphylococcus aureus; ref Adamczak et al., 2020
  MIC against S. aureus: 250 to 500 µg/mL
Staphylococcus aureus; ref Skroza et al., 2019
  MIC against S. aureus: 350 µg/mL (≈ 2530 µM)
Enterococcus faecalis
  MIC against Enterococcus faecalis: 500 µg/mL (≈ 3620 µM)
Pseudomonas aeruginosa
  MIC against P. aeruginosa: 500 µg/mL (≈ 3620 µM)
Bacillus cereus
  MIC against Bacillus cereus: 170 µg/mL (≈ 1230 µM)
Escherichia coli; ref Adamczak et al., 2020
  MIC against E. coli: 250 to 500 µg/mL
Escherichia coli; [3]
  MIC against E. coli: 170 µg/mL (≈ 1230 µM)

## O=c1c(O)c(-c2ccc(O)cc2)oc2cc(O)cc(O)c12 [Kaempferol]
Salmonella Infantis
  MIC against Salmonella Infantis: 360 µg/mL (≈ 1260 µM)
Staphylococcus aureus; ref Skroza et al., 2019
  MIC against S. aureus: 90 µg/mL (≈ 314 µM)
Enterococcus faecalis; ref del Valle et al., 2016
  MIC against E. faecalis: E. faecalis 0.1 g·L^−1
Bacillus cereus
  MIC against Bacillus cereus: 90 µg/mL (≈ 314 µM)
Escherichia coli; ref Adamczak et al., 2020
  MIC against E. coli: E. coli 0.5 g·L^−1
Escherichia coli; [3]
  MIC against E. coli: 360 µg/mL (≈ 1260 µM)

## O=c1cc(-c2ccccc2)oc2ccccc12 [Flavone]
Enterococcus faecalis
  MIC against Enterococcus faecalis: E. faecalis 0.5 g·L^−1 E. coli 0.5 g·L^−1 P. aeruginosa 0.5 g·L^−1
Pseudomonas aeruginosa
  MIC against P. aeruginosa: E. faecalis 0.5 g·L^−1 E. coli 0.5 g·L^−1 P. aeruginosa 0.5 g·L^−1
Escherichia coli; ref Adamczak et al., 2020
  MIC against E. coli: E. faecalis 0.5 g·L^−1 E. coli 0.5 g·L^−1 P. aeruginosa 0.5 g·L^−1

## Oc1cc(O)c2c(c1)O[C@H](c1ccc(O)c(O)c1)[C@H](O)C2 [Epicatechin]
Salmonella Infantis
  MIC against Salmonella Infantis: 720 µg/mL (≈ 2480 µM)
Staphylococcus aureus; ref Skroza et al., 2019
  MIC against S. aureus: 720 µg/mL (≈ 2480 µM)
Bacillus cereus
  MIC against Bacillus cereus: 360 µg/mL (≈ 1240 µM)
Escherichia coli; [3]
  MIC against E. coli: 720 µg/mL (≈ 2480 µM)
